Results from patent publication US9439432B2, “Phenylisoxazoline-based compound having herbicidal activity and use thereof” (MOGHU RESEARCH CENTER LTD, priority 2011, dated 2016).

Experiments:
Assay type in all cases: in vivo
Corn [1] = experiment: Pre-emergence treatment, phytotoxicity to corn; details: 500 g/ha, 4 weeks after spraying, scale 0 to 10 (0: no effects, 10: complete death)
Procedure: (§1) A rectangular plastic pot having a surface area of 300 cm^2 was filled with sandy loam soil and mixed bed soil which were mixed at a ratio of 1:1, and then, barnyardrass (Echinochloa crusgalli), large crabgrass (Digitaria sanguinalis), blackgrass (Alopecurus myosuroides), and annual bluegrass (Poa annua), which are grass weeds, were seeded thereto. In a pot that was prepared as described above, seeds of corn, soybean, cotton, wheat, and rice were seeded. The pots were irrigated, and one day after, chemicals were sprayed thereto. The spraying was performed by using a track sprayer (R&D Sprayer, USA) equipped with a Teejet 8002 (Spraying Systems Co., USA) nozzle, and a spraying amount was adjusted at 300 L/ha. A spraying solution was prepared by dissolving test materials or references in acetone and adding the same amount of 0.2%(v/v) tween 20 aqueous solution thereto. Application rates were 500, 250, 125, and 62.5 g/ha. The pots were placed in a greenhouse in which during day, the temperature was maintained at a temperature of 25 to 30° C., and during night, the temperature was maintained at a temperature of 15 to 25° C., and the pots were periodically irrigated. Four weeks after the spraying the test materials or References, effects and phytotoxicity of the respective weeds and crops were evaluated in a scale of 0 to 10 (0: no effects, 10: complete death), and results thereof are shown in Table 4 below.

Soybean [2] = experiment: Pre-emergence treatment, phytotoxicity to soybean; details: 500 g/ha, 4 weeks after spraying, scale 0 to 10 (0: no effects, 10: complete death)
Procedure: as §1

Cotton [3] = experiment: Pre-emergence treatment, phytotoxicity to cotton; details: 500 g/ha, 4 weeks after spraying, scale 0 to 10 (0: no effects, 10: complete death)
Procedure: as §1

Wheat [4] = experiment: Pre-emergence treatment, phytotoxicity to wheat; details: 500 g/ha, 4 weeks after spraying, scale 0 to 10 (0: no effects, 10: complete death)
Procedure: as §1

Rice [5] = experiment: Pre-emergence treatment, phytotoxicity to rice; details: 500 g/ha, 4 weeks after spraying, scale 0 to 10 (0: no effects, 10: complete death)
Procedure: as §1

Echinochloa crusgalli [6] = experiment: Pre-emergence treatment, herbicidal efficacy on barnyardgrass; details: 4 weeks after spraying
Procedure: as §1

Digitaria sanguinalis [7] = experiment: Pre-emergence treatment, herbicidal efficacy on large crabgrass; details: 4 weeks after spraying, scale 0 to 10
Procedure: as §1

Poa annua [8] = experiment: Pre-emergence treatment, herbicidal efficacy on annual bluegrass; details: 4 weeks after spraying, scale 0 to 10
Procedure: as §1

Alopecurus myosuroides [9] = experiment: Pre-emergence treatment, herbicidal efficacy on blackgrass; details: 4 weeks after spraying, scale 0 to 10
Procedure: as §1

Corn [10] = experiment: Post-emergence treatment, phytotoxicity to corn; details: post-emergence (about 3 leaf stage), 1,000 g/ha, 4 weeks after spraying, scale 0 to 10 (0: no effects, 10: complete death)
Procedure: as §1
(§2) Pots containing crops and weeds were prepared in the same manner as in Example 7, and then, in the second week in which crops and weeds entered into about 3 leaf stage, the test materials and the references were sprayed thereto in the same manner as described above. The rates were 1,000, 500, 250, and 125 g/ha. Four weeks after the spraying of the test materials or the references, herbicidal efficacy and phytotoxicity to the respective weeds and crops were evaluated in a scale of 0 to 10 (0: no effects, 10: complete death).

Soybean [11] = experiment: Post-emergence treatment, phytotoxicity to soybean; details: post-emergence (about 3 leaf stage), 1,000 g/ha, 4 weeks after spraying, scale 0 to 10 (0: no effects, 10: complete death)
Procedure: as §1, §2

Cotton [12] = experiment: Post-emergence treatment, phytotoxicity to cotton; details: post-emergence (about 3 leaf stage), 1,000 g/ha, 4 weeks after spraying, scale 0 to 10 (0: no effects, 10: complete death)
Procedure: as §1, §2

Wheat [13] = experiment: Post-emergence treatment, phytotoxicity to wheat; details: post-emergence (about 3 leaf stage), 1,000 g/ha, 4 weeks after spraying, scale 0 to 10 (0: no effects, 10: complete death)
Procedure: as §1, §2

Rice [14] = experiment: Post-emergence treatment, phytotoxicity to rice; details: post-emergence (about 3 leaf stage), 1,000 g/ha, 4 weeks after spraying, scale 0 to 10 (0: no effects, 10: complete death)
Procedure: as §1, §2

Echinochloa crusgalli [15] = experiment: Post-emergence treatment, herbicidal efficacy on barnyardgrass; details: 4 weeks after spraying, scale 0 to 10
Procedure: as §1, §2

Digitaria sanguinalis [16] = experiment: Post-emergence treatment, herbicidal efficacy on large crabgrass; details: 4 weeks after spraying, scale 0 to 10
Procedure: as §1, §2

Poa annua [17] = experiment: Post-emergence treatment, herbicidal efficacy on annual bluegrass; details: 4 weeks after spraying, scale 0 to 10
Procedure: as §1, §2

Alopecurus myosuroides [18] = experiment: Post-emergence treatment, herbicidal efficacy on blackgrass; details: 4 weeks after spraying, scale 0 to 10
Procedure: as §1, §2

[19] = 500 g/ha, scale 0 to 10 (0: no effects, 10: complete death)

## Cc1ccccc1C1=NOC(C)(COCc2ccccc2F)C1 (stereo not drawn) [Reference D]
Corn [1]
  Phytotoxicity, Corn: 0
Soybean [2]
  Phytotoxicity, Soybean: 0
Cotton [3]
  Phytotoxicity, Cotton: 0
Wheat [4]
  Phytotoxicity, Wheat: 0
Rice [5]
  Phytotoxicity, Rice: 0
Echinochloa crusgalli [6]; 62.5 g/ha, scale 0 to 10
  Herbicidal efficacy, Echinochloa crusgalli: 1
Echinochloa crusgalli [6]; 125 g/ha, scale 0 to 10
  Herbicidal efficacy, Echinochloa crusgalli: 3
Echinochloa crusgalli [6]; 250 g/ha, scale 0 to 10
  Herbicidal efficacy, Echinochloa crusgalli: 6
Echinochloa crusgalli [6]; [19]
  Herbicidal efficacy, Echinochloa crusgalli: 10
Digitaria sanguinalis [7]; 62.5 g/ha
  Herbicidal efficacy, Digitaria sanguinalis: 0
Digitaria sanguinalis [7]; 125 g/ha
  Herbicidal efficacy, Digitaria sanguinalis: 2
Digitaria sanguinalis [7]; 250 g/ha
  Herbicidal efficacy, Digitaria sanguinalis: 6
Digitaria sanguinalis [7]; 500 g/ha
  Herbicidal efficacy, Digitaria sanguinalis: 10
Poa annua [8]; 62.5 g/ha
  Herbicidal efficacy, Poa annua: 0
Poa annua [8]; 125 g/ha
  Herbicidal efficacy, Poa annua: 2
Poa annua [8]; 250 g/ha
  Herbicidal efficacy, Poa annua: 5
Poa annua [8]; 500 g/ha
  Herbicidal efficacy, Poa annua: 8
Alopecurus myosuroides [9]; 62.5 g/ha
  Herbicidal efficacy, Alopecurus myosuroides: 0
Alopecurus myosuroides [9]; 125 g/ha
  Herbicidal efficacy, Alopecurus myosuroides: 0
Alopecurus myosuroides [9]; 250 g/ha
  Herbicidal efficacy, Alopecurus myosuroides: 3
Alopecurus myosuroides [9]; 500 g/ha
  Herbicidal efficacy, Alopecurus myosuroides: 9
Corn [10]
  Phytotoxicity, Corn: 0
Soybean [11]
  Phytotoxicity, Soybean: 0
Cotton [12]
  Phytotoxicity, Cotton: 0
Wheat [13]
  Phytotoxicity, Wheat: 0
Rice [14]
  Phytotoxicity, Rice: 0
Echinochloa crusgalli [15]; post-emergence, 125 g/ha
  Herbicidal efficacy, Echinochloa crusgalli: 0
Echinochloa crusgalli [15]; post-emergence, 250 g/ha
  Herbicidal efficacy, Echinochloa crusgalli: 0
Echinochloa crusgalli [15]; post-emergence, 500 g/ha
  Herbicidal efficacy, Echinochloa crusgalli: 1
Echinochloa crusgalli [15]; post-emergence, 1,000 g/ha
  Herbicidal efficacy, Echinochloa crusgalli: 4
Digitaria sanguinalis [16]; post-emergence, 125 g/ha
  Herbicidal efficacy, Digitaria sanguinalis: 0
Digitaria sanguinalis [16]; post-emergence, 250 g/ha
  Herbicidal efficacy, Digitaria sanguinalis: 0
Digitaria sanguinalis [16]; post-emergence, 500 g/ha
  Herbicidal efficacy, Digitaria sanguinalis: 4
Digitaria sanguinalis [16]; post-emergence, 1,000 g/ha
  Herbicidal efficacy, Digitaria sanguinalis: 7
Poa annua [17]; post-emergence, 125 g/ha
  Herbicidal efficacy, Poa annua: 0
Poa annua [17]; post-emergence, 250 g/ha
  Herbicidal efficacy, Poa annua: 0
Poa annua [17]; post-emergence, 500 g/ha
  Herbicidal efficacy, Poa annua: 2
Poa annua [17]; post-emergence, 1,000 g/ha
  Herbicidal efficacy, Poa annua: 5
Alopecurus myosuroides [18]; post-emergence, 125 g/ha
  Herbicidal efficacy, Alopecurus myosuroides: 0
Alopecurus myosuroides [18]; post-emergence, 250 g/ha
  Herbicidal efficacy, Alopecurus myosuroides: 0
Alopecurus myosuroides [18]; post-emergence, 500 g/ha
  Herbicidal efficacy, Alopecurus myosuroides: 3
Alopecurus myosuroides [18]; post-emergence, 1,000 g/ha
  Herbicidal efficacy, Alopecurus myosuroides: 4

## CC1(COCc2ccccc2F)CC(c2ccccc2[N+](=O)[O-])=NO1 (stereo not drawn) [Reference A]
Corn [1]
  Phytotoxicity, Corn: 0
Soybean [2]
  Phytotoxicity, Soybean: 0
Cotton [3]
  Phytotoxicity, Cotton: 0
Wheat [4]
  Phytotoxicity, Wheat: 0
Rice [5]
  Phytotoxicity, Rice: 0
Echinochloa crusgalli [6]; 62.5 g/ha, scale 0 to 10
  Herbicidal efficacy, Echinochloa crusgalli: 0
Echinochloa crusgalli [6]; 125 g/ha, scale 0 to 10
  Herbicidal efficacy, Echinochloa crusgalli: 2
Echinochloa crusgalli [6]; 250 g/ha, scale 0 to 10
  Herbicidal efficacy, Echinochloa crusgalli: 6
Echinochloa crusgalli [6]; [19]
  Herbicidal efficacy, Echinochloa crusgalli: 10
Digitaria sanguinalis [7]; 62.5 g/ha
  Herbicidal efficacy, Digitaria sanguinalis: 0
Digitaria sanguinalis [7]; 125 g/ha
  Herbicidal efficacy, Digitaria sanguinalis: 2
Digitaria sanguinalis [7]; 250 g/ha
  Herbicidal efficacy, Digitaria sanguinalis: 6
Digitaria sanguinalis [7]; 500 g/ha
  Herbicidal efficacy, Digitaria sanguinalis: 10
Poa annua [8]; 62.5 g/ha
  Herbicidal efficacy, Poa annua: 0
Poa annua [8]; 125 g/ha
  Herbicidal efficacy, Poa annua: 2
Poa annua [8]; 250 g/ha
  Herbicidal efficacy, Poa annua: 5
Poa annua [8]; 500 g/ha
  Herbicidal efficacy, Poa annua: 9
Alopecurus myosuroides [9]; 62.5 g/ha
  Herbicidal efficacy, Alopecurus myosuroides: 0
Alopecurus myosuroides [9]; 125 g/ha
  Herbicidal efficacy, Alopecurus myosuroides: 0
Alopecurus myosuroides [9]; 250 g/ha
  Herbicidal efficacy, Alopecurus myosuroides: 3
Alopecurus myosuroides [9]; 500 g/ha
  Herbicidal efficacy, Alopecurus myosuroides: 10
Corn [10]
  Phytotoxicity, Corn: 0
Soybean [11]
  Phytotoxicity, Soybean: 1
Cotton [12]
  Phytotoxicity, Cotton: 0
Wheat [13]
  Phytotoxicity, Wheat: 0
Rice [14]
  Phytotoxicity, Rice: 0
Echinochloa crusgalli [15]; post-emergence, 125 g/ha
  Herbicidal efficacy, Echinochloa crusgalli: 0
Echinochloa crusgalli [15]; post-emergence, 250 g/ha
  Herbicidal efficacy, Echinochloa crusgalli: 2
Echinochloa crusgalli [15]; post-emergence, 500 g/ha
  Herbicidal efficacy, Echinochloa crusgalli: 5
Echinochloa crusgalli [15]; post-emergence, 1,000 g/ha
  Herbicidal efficacy, Echinochloa crusgalli: 7
Digitaria sanguinalis [16]; post-emergence, 125 g/ha
  Herbicidal efficacy, Digitaria sanguinalis: 0
Digitaria sanguinalis [16]; post-emergence, 250 g/ha
  Herbicidal efficacy, Digitaria sanguinalis: 1
Digitaria sanguinalis [16]; post-emergence, 500 g/ha
  Herbicidal efficacy, Digitaria sanguinalis: 4
Digitaria sanguinalis [16]; post-emergence, 1,000 g/ha
  Herbicidal efficacy, Digitaria sanguinalis: 5
Poa annua [17]; post-emergence, 125 g/ha
  Herbicidal efficacy, Poa annua: 0
Poa annua [17]; post-emergence, 250 g/ha
  Herbicidal efficacy, Poa annua: 0
Poa annua [17]; post-emergence, 500 g/ha
  Herbicidal efficacy, Poa annua: 3
Poa annua [17]; post-emergence, 1,000 g/ha
  Herbicidal efficacy, Poa annua: 5
Alopecurus myosuroides [18]; post-emergence, 125 g/ha
  Herbicidal efficacy, Alopecurus myosuroides: 0
Alopecurus myosuroides [18]; post-emergence, 250 g/ha
  Herbicidal efficacy, Alopecurus myosuroides: 0
Alopecurus myosuroides [18]; post-emergence, 500 g/ha
  Herbicidal efficacy, Alopecurus myosuroides: 0
Alopecurus myosuroides [18]; post-emergence, 1,000 g/ha
  Herbicidal efficacy, Alopecurus myosuroides: 2
